Measured values taken from US8993757B2, “N-piperidin-4-yl derivatives” (Merck Sharp & Dohme B.V., priority 2011, dated 2015).

Biological target: T1, human FSH receptor (Homo sapiens, UniProt P23945)
T1 construct: expressed in transfected cells; host or cells: CHO cells, cotransfected with a CRE/promotor firefly luciferase reporter
T1 sequence (P23945 18-695): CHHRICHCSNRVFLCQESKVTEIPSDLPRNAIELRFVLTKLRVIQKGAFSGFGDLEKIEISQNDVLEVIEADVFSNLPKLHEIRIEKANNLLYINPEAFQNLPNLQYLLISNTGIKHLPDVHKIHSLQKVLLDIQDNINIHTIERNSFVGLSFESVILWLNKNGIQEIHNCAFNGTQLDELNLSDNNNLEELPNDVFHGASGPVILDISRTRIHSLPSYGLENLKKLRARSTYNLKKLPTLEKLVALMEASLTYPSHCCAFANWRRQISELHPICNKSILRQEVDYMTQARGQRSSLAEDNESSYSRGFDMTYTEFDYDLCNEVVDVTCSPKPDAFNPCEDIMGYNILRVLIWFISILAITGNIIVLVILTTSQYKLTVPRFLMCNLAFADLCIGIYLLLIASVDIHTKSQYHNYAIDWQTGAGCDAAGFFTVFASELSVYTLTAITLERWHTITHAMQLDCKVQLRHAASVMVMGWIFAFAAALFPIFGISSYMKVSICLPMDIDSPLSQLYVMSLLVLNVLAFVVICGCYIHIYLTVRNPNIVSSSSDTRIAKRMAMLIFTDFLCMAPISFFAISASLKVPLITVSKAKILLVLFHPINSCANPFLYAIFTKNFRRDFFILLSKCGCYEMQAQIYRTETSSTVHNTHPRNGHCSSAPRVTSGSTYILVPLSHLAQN
Experiment: Antagonistic activity at the human FSH receptor expressed in CHO cells (CRE-luciferase reporter)
Format: cell-based
Settings: CHO cells stably transfected with human FSH receptor and CRE/firefly luciferase reporter; 4 hours incubation; read-out: pIC50 (negative logarithm of the IC50 value) (converted)
Experimental: The FSHR antagonists of the invention have pIC50 values higher than 6 in said assay. The preferred compounds of the invention have pIC50 values higher than 8.
Antagonistic activity of the compounds at the human FSH receptor was determined in Chinese Hamster Ovary (CHO) cells stably transfected with the human FSH receptor and cotransfected with a cAMP responsive element (CRE)/promotor directing the expression of a firefly luciferase reporter gene. […] The cells (7,500 cells/well of a 384 well plate) were incubated in Dulbecco′ minimal essential F12 modified medium (Invitrogen), supplemented with 1 μg/ml bovine insulin, 5 μg/ml human apo-transferrin, 100 U/ml penicillin G and 100 μg/ml streptomycin with the test compounds (concentration between 0.316 nM and 10.0 μM) in duplicate together with […] (which, at this concentration in the absence of test compound, induces 80% of the maximal luciferase stimulation) in a humidified atmosphere (95%) at 5-7% CO2 and 37° C. The final concentration of DMSO was 1%. After 4 hours of incubation, plates were allowed to adjust to room temperature for 1 hour. Then, SteadyLite (Perkin Elmer) solution was added to the wells and cells were allowed to lyse for at least 1 hour at room temperature. Subsequently, luciferase activity was measured in a luminescence counter. The signal is expressed as counts per second (cps). The IC50 (concentration of test compound causing half-maximal (50%) inhibition of the maximally attainable inhibition of the luciferase stimulation by the compound) and efficacy of the compounds were determined using the software program MathIQ (version 2.3, ID Business Solutions Limited).

Row | IC50 [nM] | SMILES
1 | 10 to 100 | COc1cc(OCC2CC2)cc(C(=O)NCC2CCN(c3nc(-c4cccc(C#N)c4)ncc3F)CC2)c1 [Example 19B, N-((1-(2-(3-cyanophenyl)-5-fluoropyrimidin-4-yl)piperidin-4-yl)methyl)-3-(cyclopropylmethoxy)-5-methoxybenzamide]
2 | 10 to 100 | COC(=O)c1cnc(-c2cccc(-n3cccn3)c2)nc1N1CCC(CNC(=O)c2cc(OC)cc(OC)c2)CC1 [Example 21B, methyl 2-(3-(1H-pyrazol-1-yl)phenyl)-4-(4-((3,5-dimethoxybenzamido)methyl)piperidin-1-yl)pyrimidine-5-carboxylate]
3 | 10 to 100 | COc1cc(OCC2CC2)cc(C(=O)NCC2CCN(c3ncnc(-c4ccc(O)c(C#N)c4)n3)CC2)c1 [Example 34, N-((1-(4-(3-cyano-4-hydroxyphenyl)-1,3,5-triazin-2-yl)piperidin-4-yl)methyl)-3-(cyclopropylmethoxy)-5-methoxybenzamide]
4 | 10 to 100 | COc1cc(OCCCO)cc(C(=O)NCC2CCN(c3ccnc(-c4cccc(-n5cccn5)c4)n3)CC2)c1 [Example 15C, N-((1-(2-(3-(1H-pyrazol-1-yl)phenyl)pyrimidin-4-yl)piperidin-4-yl)methyl)-3-(3-hydroxypropoxy)-5-methoxybenzamide]
5 | 10 to 100 | COc1cc(OCC2CC2)cc(C(=O)NCC2CCN(c3ccnc(-c4cccc(-n5cccn5)n4)n3)CC2)c1 [Example 33E, N-((1-(2-(6-(1H-pyrazol-1-yl)pyridin-2-yl)pyrimidin-4-yl)piperidin-4-yl)methyl)-3-(cyclopropylmethoxy)-5-methoxybenzamide]
6 | 10 to 100 | COc1cc(NC(=O)C2CCN(c3ccnc(-c4cccc(-n5cccn5)c4)n3)CC2)cc(OCc2ccc(F)cc2)c1 [Example 42, 1-(2-(3-(1H-pyrazol-1-yl)phenyl)pyrimidin-4-yl)-N-(3-(4-fluorobenzoxy)-5-methoxyphenyl)piperidine-4-carboxamide]
7 | 10 to 100 | Cc1cc(NC(=O)C2CCN(c3ccnc(-c4cccc(-n5cccn5)c4)n3)CC2)cc(OC(F)(F)F)c1 [Example 46, 1-(2-(3-(1H-pyrazol-1-yl)phenyl)pyrimidin-4-yl)-N-(3-methyl-5-(trifluoromethoxy)phenyl)piperidine-4-carboxamide]
8 | < 10 | COc1cc(OCC2CC2)cc(C(=O)NC(C)C2CCN(c3ccnc(-c4cccc(-n5cccn5)c4)n3)CC2)c1 (stereo not shown) [Example 39, N-(1-(1-(2-(3-(1H-pyrazol-1-yl)phenyl)pyrimidin-4-yl)piperidin-4-yl)ethyl)-3-(cyclopropylmethoxy)-5-methoxybenzamide]
9 | < 10 | COc1cc(OCC2CC2)cc(C(=O)NC(C)C2CCN(c3ccnc(-c4cccc(C#N)c4)n3)CC2)c1 (stereo not shown) [Example 38, N-(1-(1-(2-(3-cyanophenyl)pyrimidin-4-yl)piperidin-4-yl)ethyl)-3-(cyclopropylmethoxy)-5-methoxybenzamide]
10 | 10 to 100 | COc1cc(OCC2CC2)cc(C(=O)NCC2CCN(c3ccnc(-c4cccc(-n5ncc(C(=O)O)c5C)c4)n3)CC2)c1 [Example 33D, 1-(3-(4-(4-((3-(cyclopropylmethoxy)-5-methoxybenzamido)methyl)piperidin-1-yl)pyrimidin-2-yl)phenyl)-5-methyl-1H-pyrazole-4-carboxylic acid]
11 | 10 to 100 | COc1cc(OCC2CCOCC2)cc(C(=O)NCC2CCN(c3ncnc(-c4cccc(-n5cccn5)c4)n3)CC2)c1 [Example 17B, N-((1-(4-(3-(1H-pyrazol-1-yl)phenyl)-1,3,5-triazin-2-yl)piperidin-4-yl)methyl)-3-methoxy-5-((tetrahydro-2H-pyran-4-yl)methoxy)benzamide]
12 | 10 to 100 | COc1cc(OCC2CC2)cc(C(=O)NCC2CCN(c3ncnc(-c4cccc(C(=O)Nc5nccs5)c4)n3)CC2)c1 [Example 32I, 3-(cyclopropylmethoxy)-5-methoxy-N-((1-(4-(3-(thiazol-2-ylcarbamoyl)phenyl)-1,3,5-triazin-2-yl)piperidin-4-yl)methyl)benzamide]
13 | 10 to 100 | COc1cc(NC(=O)C2CCN(c3ccnc(-c4cccc(-n5cccn5)c4)n3)CC2)cc(OC(C)C)c1 [Example 44, 1-(2-(3-(1H-pyrazol-1-yl)phenyl)pyrimidin-4-yl)-N-(3-isopropoxy-5-methoxyphenyl)piperidine-4-carboxamide]
14 | 10 to 100 | COc1cc(OCc2ccc(F)cc2)cc(C(=O)NCC2CCN(c3ccnc(-c4cccc(-n5cccn5)c4)n3)CC2)c1 [Example 14, N-((1-(2-(3-(1H-pyrazol-1-yl)phenyl)pyrimidin-4-yl)piperidin-4-yl)methyl)-3-(4-fluorobenzoxy)-5-methoxybenzamide]
15 | < 10 | COc1cc(OCC(F)(F)F)cc(C(=O)NCC2CCN(c3ncnc(-c4cccc(C#N)c4)n3)CC2)c1 [Example 30D, N-((1-(4-(3-cyanophenyl)-1,3,5-triazin-2-yl)piperidin-4-yl)methyl)-3-methoxy-5-(2,2,2-trifluoroethoxy)benzamide]
16 | < 10 | COc1cc(OCC2CC2)cc(C(=O)NCC2CCN(c3ccnc(-c4cccc(C(=O)Nc5ccn(C)n5)c4)n3)CC2)c1 [Example 32C, 3-(cyclopropylmethoxy)-5-methoxy-N-((1-(2-(3-(1-methyl-1H-pyrazol-3-ylcarbamoyl)phenyl)pyrimidin-4-yl)piperidin-4-yl)methyl)benzamide]
17 | 10 to 100 | C#CCOc1cc(OC)cc(C(=O)NCC2CCN(c3nc(-c4cccc(-c5cc[nH]n5)c4)ncc3F)CC2)c1 [Example 23C, N-((1-(2-(3-(1H-pyrazol-3-yl)phenyl)-5-fluoropyrimidin-4-yl)piperidin-4-yl)methyl)-3-methoxy-5-(prop-2-ynoxy)benzamide]
18 | < 10 | COc1cc(OCC2CC2)cc(C(=O)NCC2CCN(c3nc(-c4cccc(-c5ncc[nH]5)c4)ncc3F)CC2)c1 [Example 41, N-((1-(2-(3-(1H-imidazol-2-yl)phenyl)-5-fluoropyrimidin-4-yl)piperidin-4-yl)methyl)-3-(cyclopropylmethoxy)-5-methoxybenzamide 2,2,2-trifluoroacetate]
19 | 10 to 100 | COc1cc(OCC2CC2)cc(C(=O)NCC2CCN(c3ccnc(-c4cccc(C(=O)NC(C)(C)C)c4)n3)CC2)c1 [Example 32F, N-((1-(2-(3-(tert-butylcarbamoyl)phenyl)pyrimidin-4-yl)piperidin-4-yl)methyl)-3-(cyclopropylmethoxy)-5-methoxybenzamide]
20 | 10 to 100 | COc1cc(OCC2CC2)cc(C(=O)NCC2CCN(c3ncnc(-c4cccc(C(=O)NCCO)c4)n3)CC2)c1 [Example 32H, 3-(cyclopropylmethoxy)-N-((1-(4-(3-(2-hydroxyethylcarbamoyl)phenyl)-1,3,5-triazin-2-yl)piperidin-4-yl)methyl)-5-methoxybenzamide]
21 | 10 to 100 | COc1cc(OCc2ccccc2)cc(C(=O)NCC2CCN(c3ncnc(-c4cccc(-c5ccccn5)c4)n3)CC2)c1 [Example 12B, 3-(benzoxy)-5-methoxy-N-((1-(4-(3-(pyridin-2-yl)phenyl)-1,3,5-triazin-2-yl)piperidin-4-yl)methyl)benzamide]
22 | < 10 | COc1cc(OCC2CC2)cc(C(=O)NC(C)C2CCN(c3ncnc(-c4cccc(-c5cc[nH]n5)c4)n3)CC2)c1 (stereo not shown) [Example 37, N-(1-(1-(4-(3-(1H-pyrazol-3-yl)phenyl)-1,3,5-triazin-2-yl)piperidin-4-yl)ethyl)-3-(cyclopropylmethoxy)-5-methoxybenzamide]
